Reference: patent publication US20110039763A1, “TARGETED ANTIMICROBIAL MOIETIES” (C3 JIAN, INC., priority 2009, published 2011)

Tested on: microorganisms
Assay: Morphology, biofilm and growth disrupting peptides (Table 5)
Assay type: cell-based
Set-up: key: A: Peptide aggregates; B: Less hyphal formation; Clumps; Diffuse clumps and small polyps; F: Diffuse growth; H: Thin; I: Growth inhibition; Microcolony formation; Rippled; Small polyps; Thick; W: Halo formation on top, microlonies on bottom
From the text: In certain embodiments peptides that induce alterations in phenotype or other biological activities can also be used as antimicrobial effector moieties.

## DLLKSLLGQDGAKNDEIIEFIKIIMEK [PF-591]
C. jejuni
  Organism, effect: C. jejuni (C)
E. faecalis
  Organism, effect: E. faecalis (A)
S. pneumoniae
  Organism, effect: S. pneumoniae (R)

## KTPNDKIHKTIIIKHIIL [PF-533]
E. coli
  Organism, effect: E. coli (R)
E. faecalis
  Organism, effect: E. faecalis (C)
MRSA
  Organism, effect: MRSA (H)
S. epidermidis
  Organism, effect: S. epidermidis (H)
S. pneumoniae
  Organism, effect: S. pneumoniae (C)

## PF-019 (NDTNK; Peptide with targeting and/or antimicrobial activity)
MRSA
  Organism, effect: MRSA: MRSA (M)

## PF-032 (RIVVPAHQSNMASTPNLSITP; Peptide with targeting and/or antimicrobial activity)
  Organism, effect: C. jeikeium: C. jeikeium (C)
S. epidermidis
  Organism, effect: S. epidermidis: S. epidermidis (S)

## PF-059 (TITLKAGIERALHEEVPGVIEVEQVF; Peptide with targeting and/or antimicrobial activity)
C. jejuni
  Organism, effect: C. jejuni: C. jejuni (C)

## PF-199 (FPAFSFGAIAGSVSVAR; Peptide with targeting and/or antimicrobial activity)
  Organism, effect: C. jeikeium: C. jeikeium (R)
  Organism, effect: M. luteus: M. luteus (A)
S. epidermidis
  Organism, effect: S. epidermidis: S. epidermidis (C)

## PF-220 (VDPADDGTRHIRPEDGDPIEIDE; Peptide with targeting and/or antimicrobial activity)
S. pneumoniae
  Organism, effect: S. pneumoniae: S. pneumoniae (H)

## PF-250 (SEDIFGRLANEKANGLEELRKIRLKQ; Peptide with targeting and/or antimicrobial activity)
  Organism, effect: M. luteus: M. luteus (T)

## PF-264 (MQSLSNRQSLIASYILMGIFLSFGYPPASLSKFFCRLSHL; Peptide with targeting and/or antimicrobial activity)
  Organism, effect: M. luteus: M. luteus (H)

## PF-274 (SIQEAEKIIKNDPFYIHDVADYDFMWFEPSKSLEEIKEFV; Peptide with targeting and/or antimicrobial activity)
  Organism, effect: M. luteus: M. luteus (M)

## PF-290 (MVHDMTNGTLIIVKH; Peptide with targeting and/or antimicrobial activity)
S. epidermidis
  Organism, effect: S. epidermidis: S. epidermidis (C)

## PF-293 (YDPLK; Peptide with targeting and/or antimicrobial activity)
S. epidermidis
  Organism, effect: S. epidermidis: S. epidermidis (C)

## PF-296 (GAFGMPSIKTNTICGEKGKFISACDAWLSNLK; Peptide with targeting and/or antimicrobial activity)
B. subtilis
  Organism, effect: B. subtilis: B. subtilis (C)
S. epidermidis
  Organism, effect: S. epidermidis: S. epidermidis (C)

## PF-303 (EYPWSWISEPWPWDKSFYK; Peptide with targeting and/or antimicrobial activity)
B. subtilis
  Organism, effect: B. subtilis: B. subtilis (C)

## PF-310 (GVALIGTILVPLLSGLFG; Peptide with targeting and/or antimicrobial activity)
S. epidermidis
  Organism, effect: S. epidermidis: S. epidermidis (C)

## PF-318 (MGRHLWNPSYFVATVSENTEEQIRKYINNQKKQVK; Peptide with targeting and/or antimicrobial activity)
B. subtilis
  Organism, effect: B. subtilis: B. subtilis (C)
S. epidermidis
  Organism, effect: S. epidermidis: S. epidermidis (C)

## PF-335 (AAYPIEDWSDWYEDFFIMLSNI; Peptide with targeting and/or antimicrobial activity)
B. subtilis
  Organism, effect: B. subtilis: B. subtilis (C)
S. epidermidis
  Organism, effect: S. epidermidis: S. epidermidis (C)

## PF-339 (KKIDILINKYMYLSK; Peptide with targeting and/or antimicrobial activity)
B. subtilis
  Organism, effect: B. subtilis: B. subtilis (C)
S. epidermidis
  Organism, effect: S. epidermidis: S. epidermidis (C)

## PF-342 (AFSGVYKTLIVYTRRK; Peptide with targeting and/or antimicrobial activity)
B. subtilis
  Organism, effect: B. subtilis: B. subtilis (C)
S. epidermidis
  Organism, effect: S. epidermidis: S. epidermidis (C)

## PF-415 (MIDVTIGQKSKTGAFNASYSICFSGENFSF; Peptide with targeting and/or antimicrobial activity)
S. pneumoniae
  Organism, effect: S. pneumoniae: S. pneumoniae (D)

## PF-419 (VVTGKVGSLPQIK; Peptide with targeting and/or antimicrobial activity)
S. pneumoniae
  Organism, effect: S. pneumoniae: S. pneumoniae (H)

## PF-449 (MPTTKSKQKGWTNTKKASNTQ; Peptide with targeting and/or antimicrobial activity)
S. pneumoniae
  Organism, effect: S. pneumoniae (H)

## PF-455 (MARNDDDIKKIKGTLGQSPEVYGERKLPYT; Peptide with targeting and/or antimicrobial activity)
S. pneumoniae
  Organism, effect: S. pneumoniae (A)

## PF-468 (EDNKDKKDKKDK; Peptide with targeting and/or antimicrobial activity)
S. pneumoniae
  Organism, effect: S. pneumoniae (H)

## PF-485 (KNSMSRSIALID; Peptide with targeting and/or antimicrobial activity)
S. pneumoniae
  Organism, effect: S. pneumoniae (A)

## PF-532 (KFIYKYKLSFIIYKILIQTLTMELNK; Peptide with targeting and/or antimicrobial activity)
E. coli
  Organism, effect: E. coli (C)
E. faecalis
  Organism, effect: E. faecalis (C)
MRSA
  Organism, effect: MRSA (C)
S. pneumoniae
  Organism, effect: S. pneumoniae (C)

## PF-534 (KYFHLFYHNIIHYSKQHLSLKVDFKN; Peptide with targeting and/or antimicrobial activity)
E. coli
  Organism, effect: E. coli (R)
E. faecalis
  Organism, effect: E. faecalis (C)
MRSA
  Organism, effect: MRSA (C)
S. epidermidis
  Organism, effect: S. epidermidis (C)
S. pneumoniae
  Organism, effect: S. pneumoniae (R)

## PF-535 (NIKTRKRALKIIKQHQRSK; Peptide with targeting and/or antimicrobial activity)
P. aeruginosa
  Organism, effect: P. aeruginosa (H)
S. pneumoniae
  Organism, effect: S. pneumoniae (H)

## PF-536 (MEPIPHIMIIANQIGIIIEKA; Peptide with targeting and/or antimicrobial activity)
E. coli
  Organism, effect: E. coli (R)
E. faecalis
  Organism, effect: E. faecalis (C)
MRSA
  Organism, effect: MRSA (C)
P. aeruginosa
  Organism, effect: P. aeruginosa (H)
S. epidermidis
  Organism, effect: S. epidermidis (C)
S. pneumoniae
  Organism, effect: S. pneumoniae (M)

## PF-541 (RRNLNSPNIKTRKRALKIIKQHQRSK; Peptide with targeting and/or antimicrobial activity)
E. coli
  Organism, effect: E. coli (H)
S. pneumoniae
  Organism, effect: S. pneumoniae (H)

## PF-561 (ESLEADVQAELDTEAAKYPALPASF; Peptide with targeting and/or antimicrobial activity)
B. subtilis
  Organism, effect: B. subtilis (D)
MRSA
  Organism, effect: MRSA (M)

## PF-565 (RAEAEAQRQAEADAKRKAEEAARL; Peptide with targeting and/or antimicrobial activity)
B. subtilis
  Organism, effect: B. subtilis (D)
MRSA
  Organism, effect: MRSA (C)

## PF-571 (SDLLYYPNENREDSPAGVVKEVKE; Peptide with targeting and/or antimicrobial activity)
B. subtilis
  Organism, effect: B. subtilis (D)

## PF-574 (LVKSGKLESPYEHSEHLTLSQEKGLE; Peptide with targeting and/or antimicrobial activity)
B. subtilis
  Organism, effect: B. subtilis (D)

## PF-582 (NLKTIEKECPFCNNKMDIKLKD; Peptide with targeting and/or antimicrobial activity)
E. faecalis
  Organism, effect: E. faecalis (A)

## PF-618 (KLNTLNKKDNPSLNDQDKNAVLNLLALAK; Peptide with targeting and/or antimicrobial activity)
E. faecalis
  Organism, effect: E. faecalis (H)
S. pneumoniae
  Organism, effect: S. pneumoniae (I)
